Patent US8895504B2, “Amylin derivatives” (priority 2008, dated 2014)
*1 amine or outer side, *2 acyl side, *3 side chain or, on linkers, in order; H or OH if unused. Where a SMILES comes first, the peptide text is derived from it. Bridges are numbered along the chain shown (N, C = ends). The star is where a group is joined. C20 diacid = O=C(O)CCCCCCCCCCCCCCCCCCC(=O)*; C18 diacid = O=C(O)CCCCCCCCCCCCCCCCC(=O)*; γGlu = O=C(O)[C@H](CCC(=O)[*:2])N[*:1]

Legend:
food intake = assay: Pharmacological Assay (I) - efficacy testing on appetite, ad libitum fed rat model; format: in vivo, Sprague Dawley (SD) rats; conditions: 30 nmol/kg vs vehicle, ad libitum fed rats, n=5-7, 0-48 hours
Text: Assays Pharmacological Assay (I)—Experimental Protocol for Efficacy Testing on Appetite with an Amylin Derivative, Using an Ad Libitum Fed Rat Model. Sprague Dawley (SD) rats from Taconic Europe, Denmark are used for the experiments. The rats have a body weight 200-250 g at the start of experiment. The rats arrive at least 10-14 days before start of experiment to allow acclimatization to experimental settings. During this period the animals are handled at least 2 times. After arrival rats are housed individually for one week in a reversed light/dark phase (meaning that lights are off during daytime and on during nighttime) for two weeks. Since rats are normally active and eat their major part of their daily food intake during the dark period, rats are dosed in the morning right before lights are turned off. This set-up results in the lowest data variation and highest test sensitivity. The experiment is conducted in the rats' home cages and rats have free access to food and water throughout the acclimatization period and the experiment period. Each dose of derivative is tested in a group of 5-8 rats. A vehicle group of 6-8 rats is included in each set of testing. Rats are dosed once according to body weight with a 0.01-3 mg/kg solution administered intraperitoneally (ip), orally (po) or subcutaneously (sc). The time of dosing is recorded for each group. After dosing, the rats are returned to their home cages, where they then have access to food and water. The food consumption is recorded individually continuously by on-line registration or manually every hour for 7 hours, and then after 24 h and sometimes 48 h. At the end of the experimental session, the animals are euthanized. The individual data are recorded in Microsoft excel sheets. Outliers are excluded after applying the Grubbs statistical evaluation test for outliers, and the result is presented graphically using the GraphPad Prism program.

[1] = Assay (V) PK - determination of T½ in mini-pig; format: in vivo; conditions: minipig, sc; terminal plasma half-life, subcutaneous, approx 2 nmol/kg, male Göttingen mini-pigs
Procedure: Assay (V) PK—Determination OF T½ in Mini-Pig
T½ is the terminal half-life=ln 2/λz of a compound in plasma. λz is the first order rate constant associated with the terminal (log-linear) portion of the plasma concentration-time curve and is estimated by linear regression of time vs. log concentration.
T½ values of the amylin analogues of the invention is determined by pharmacokinetic studies in male Göttingen mini-pigs from Ellegaard Göttingen Minipigs ApS and the principles of laboratory animal care are followed.
An acclimatization period of approximately 6-10 days was allowed before the animals entered the study. At start of the acclimatization period the mini-pigs were about 5 to 12 months old and in the weight range of 7-35 kg. The mini-pigs had two central venous catheters inserted which were used for blood sampling.
The studies were conducted in an animal room which was illuminated to give a cycle of approx 12 hours light and 12 hours darkness. The animals were housed individually.
The animals had free access to domestic quality drinking water during the study, but were typically fasted from overnight before dosing until approx 6-12 hours after dosing. The animals were weighed on arrival and on the days of dosing.
In the present studies the test substances were administered subcutaneously in approx 2 nmol/kg dose. The animals received a single subcutaneous injection. The subcutaneous injection was given on the right side of the neck, approximately 5-7 cm from the ear and 7-9 cm from the middle of the neck. The injections were given with a stopper on the needle, allowing approx 0.5 cm of the needle to be introduced. Each test substance was given to typically three but in some cases two or four animals.
A full plasma concentration-time profile, employing 12-16 sampling points, was obtained from each animal. In example blood samples were collected according to the following schedule:
After subcutaneous administration:
Predose (0), 0.5, 1, 2, 4, 6, 8, 12, 24, 48, 72, 96, 120, 168 and 240 hours after injection. In some cases also additional blood samples up to 288 hours post injection were taken.
At each sampling time, 0.5 to 2 ml of blood was drawn from each animal. The blood samples were taken via the central venous catheter.
The blood samples were collected into EDTA test tubes (i.e. Sarstedt Micro tube 1.3 mL K3E). Blood samples were kept on ice for max 20 min. before centrifugation. Plasma was separated using centrifugation (i.e. at 4° C., 10 min., 1500 G) and was immediately transferred to Micronic tubes. Approximately 200 μl plasma was transferred to each Micronic tube. The plasma was stored at −20° C. until assayed. The plasma samples were assayed for the content of amylin using an ELISA assay.
The plasma concentration-time profiles were analysed by a non-compartmental pharmacokinetic analysis (NCA) using WinNonlin Professional 5.0 (Pharsight Inc., Mountain View, Calif., USA). NCA was performed using the individual plasma concentration-time profiles from each animal. T½ is the terminal half-life=ln 2/λz and was determined from λz, the first order rate constant associated with the terminal (log-linear) portion of the curve, estimated by linear regression of time vs. log concentration.
ELISA Plasma Assay for Amylin Quantification
The human amylin ELISA is a monoclonal antibody-based sandwich immunoassay for determining amylin levels in human plasma. The capture antibody recognizes human amylin, amylin acid (deamidated amylin), a 1-20 fragment of amylin, but not reduced amylin.
The detection antibody binds to reduced or unreduced human amylin but not amylin acid and is complexed with streptavidin-alkaline phosphatase. The substrate, 4-methylumbelliferyl phosphate, is applied to the completed sandwich and the fluorescent signal, monitored at 355 nm/460 nm, is proportional to the amount of amylin present in the sample.

[2] = target: T1, Amylin 3(a) receptor (human calcitonin receptor (CTa) and RAMP-3) (Homo sapiens, UniProt O60896+P30988); assay: Luciferase assay (III), BHK Amylin 3(a)//CRE-luc cells; format: cell-based; conditions: BHK cells with Amylin 3(a) receptor and CRE luciferase reporter, 4 hours incubation; read-out: Potency Luciferase
T1 construct: expressed in transfected cells; host or cells: BHK570 cells, stably transfected with a CRE-luciferase reporter
T1 sequence (O60896 24-148): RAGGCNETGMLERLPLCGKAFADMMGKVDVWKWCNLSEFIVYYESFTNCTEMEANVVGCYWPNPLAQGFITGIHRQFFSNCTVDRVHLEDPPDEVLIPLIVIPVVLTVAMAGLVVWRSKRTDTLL
T1 sequence (P30988 25-474): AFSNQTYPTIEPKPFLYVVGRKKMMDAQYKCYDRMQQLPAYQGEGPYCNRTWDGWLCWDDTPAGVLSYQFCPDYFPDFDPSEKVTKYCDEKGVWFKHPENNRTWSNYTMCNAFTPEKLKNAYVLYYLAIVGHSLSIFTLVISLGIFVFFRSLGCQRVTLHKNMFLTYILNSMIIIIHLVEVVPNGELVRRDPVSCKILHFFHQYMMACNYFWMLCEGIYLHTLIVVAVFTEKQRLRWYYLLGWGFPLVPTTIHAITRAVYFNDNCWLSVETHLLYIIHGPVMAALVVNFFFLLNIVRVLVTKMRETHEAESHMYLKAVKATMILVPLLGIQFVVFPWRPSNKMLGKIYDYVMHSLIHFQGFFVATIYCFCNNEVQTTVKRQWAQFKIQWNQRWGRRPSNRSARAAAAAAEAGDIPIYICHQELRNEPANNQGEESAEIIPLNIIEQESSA
How it was run: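 Read-out is CRE-driven luciferase luminescence, taken 30 min after LucLite addition at room temperature. Compounds were incubated 4 h at 37° C in assay medium (10% FBS, 10 mM Hepes, pH 7,4). The cell line is BHK570 co-transfected with human calcitonin receptor CTa and RAMP-3, seeded overnight before use.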

CC[C@H](C)[C@H](NC(=O)[C@@H]1CCCN1C(=O)CNC(=O)[C@H](Cc1ccccc1)NC(=O)[C@H](CC(N)=O)NC(=O)[C@H](CC(N)=O)NC(=O)[C@H](CO)NC(=O)[C@H](CO)NC(=O)[C@H](Cc1c[nH]cn1)NC(=O)[C@H](Cc1c[nH]cn1)NC(=O)[C@H](CC(C)C)NC(=O)[C@H](Cc1ccccc1)NC(=O)[C@H](CC(N)=O)NC(=O)[C@H](C)NC(=O)[C@H](CC(C)C)NC(=O)[C@H](CCCNC(=N)N)NC(=O)[C@H](CCC(N)=O)NC(=O)[C@@H](NC(=O)[C@H](C)NC(=O)[C@@H]1CSSC[C@H](NC(=O)[C@H](Cc2c[nH]cn2)NC(=O)[C@H](Cc2c[nH]cn2)NC(=O)CC[C@H](NC(=O)CCCCCCCCCCCCCCCCCCC(=O)O)C(=O)O)C(=O)N[C@@H](CC(N)=O)C(=O)N[C@@H]([C@@H](C)O)C(=O)N[C@@H](C)C(=O)N[C@@H]([C@@H](C)O)C(=O)N1)[C@@H](C)O)C(=O)N[C@@H](CC(C)C)C(=O)N1CCC[C@H]1C(=O)N1CCC[C@H]1C(=O)N[C@H](C(=O)N[C@@H](CC(N)=O)C(=O)N[C@H](C(=O)NCC(=O)N[C@@H](CO)C(=O)N[C@@H](CC(N)=O)C(=O)N[C@H](C(=O)N[C@@H](Cc1ccc(O)cc1)C(N)=O)[C@@H](C)O)C(C)C)[C@@H](C)O [Example 27, N-alpha-[(S)-4-Carboxy-4-(19-carboxynonadecanoylamino)butyryl]-His-[His1,His17]-pramlintide] ({C20 diacid-γGlu}-HHCNTATCATQRLANFLHHSSNNFGPILPPTNVGSNTY-NH2; disulfide 3-8)
food intake over a period of 48 hours (food intake): effectively reducing food intake | half-life [1]: 64 h | EC50 [2]: 100 pM

CC[C@H](C)[C@H](NC(=O)[C@@H]1CCCN1C(=O)CNC(=O)[C@H](Cc1ccccc1)NC(=O)[C@H](CC(N)=O)NC(=O)[C@H](CC(N)=O)NC(=O)[C@H](CO)NC(=O)[C@H](CO)NC(=O)[C@H](CCCNC(=N)N)NC(=O)[C@H](Cc1c[nH]cn1)NC(=O)[C@H](CC(C)C)NC(=O)[C@H](Cc1ccccc1)NC(=O)[C@H](CC(N)=O)NC(=O)[C@H](C)NC(=O)[C@H](CC(C)C)NC(=O)[C@H](CCCNC(=N)N)NC(=O)[C@H](CCC(N)=O)NC(=O)[C@@H](NC(=O)[C@H](C)NC(=O)[C@@H]1CSSC[C@H](NC(=O)[C@H](Cc2c[nH]cn2)NC(=O)[C@H](Cc2c[nH]cn2)NC(=O)CC[C@H](NC(=O)CCCCCCCCCCCCCCCCCCC(=O)O)C(=O)O)C(=O)N[C@@H](CC(N)=O)C(=O)N[C@@H]([C@@H](C)O)C(=O)N[C@@H](C)C(=O)N[C@@H]([C@@H](C)O)C(=O)N1)[C@@H](C)O)C(=O)N[C@@H](CC(C)C)C(=O)N1CCC[C@H]1C(=O)N1CCC[C@H]1C(=O)N[C@H](C(=O)N[C@@H](CC(N)=O)C(=O)N[C@H](C(=O)NCC(=O)N[C@@H](CO)C(=O)N[C@@H](CC(N)=O)C(=O)N[C@H](C(=O)N[C@@H](Cc1ccc(O)cc1)C(N)=O)[C@@H](C)O)C(C)C)[C@@H](C)O [Example 47, N-alpha-[(S)-4-Carboxy-4-(19-carboxynonadecanoylamino)butyryl]-His-[His1,His17,Arg18]-pramlintide] ({C20 diacid-γGlu}-HHCNTATCATQRLANFLHRSSNNFGPILPPTNVGSNTY-NH2; disulfide 3-8)
food intake over a period of 48 hours (food intake): effectively reducing food intake | half-life [1]: 30 h | EC50 [2]: 200 pM

CC[C@H](C)[C@H](NC(=O)[C@@H]1CCCN1C(=O)CNC(=O)[C@H](Cc1ccccc1)NC(=O)[C@H](CC(N)=O)NC(=O)[C@H](CC(N)=O)NC(=O)[C@H](CO)NC(=O)[C@H](CO)NC(=O)[C@H](Cc1c[nH]cn1)NC(=O)[C@H](Cc1c[nH]cn1)NC(=O)[C@H](CC(C)C)NC(=O)[C@H](Cc1ccccc1)NC(=O)[C@H](CC(N)=O)NC(=O)[C@H](C)NC(=O)[C@H](CC(C)C)NC(=O)[C@H](CCCNC(=N)N)NC(=O)[C@H](CCC(N)=O)NC(=O)[C@@H](NC(=O)[C@H](C)NC(=O)[C@@H]1CSSC[C@H](NC(=O)[C@H](Cc2c[nH]cn2)NC(=O)[C@H](Cc2c[nH]cn2)NC(=O)CC[C@H](NC(=O)CCCCCCCCCCCCCCCCC(=O)O)C(=O)O)C(=O)N[C@@H](CC(N)=O)C(=O)N[C@@H]([C@@H](C)O)C(=O)N[C@@H](C)C(=O)N[C@@H]([C@@H](C)O)C(=O)N1)[C@@H](C)O)C(=O)N[C@@H](CC(C)C)C(=O)N1CCC[C@H]1C(=O)N1CCC[C@H]1C(=O)N[C@H](C(=O)N[C@@H](CC(N)=O)C(=O)N[C@H](C(=O)NCC(=O)N[C@@H](CO)C(=O)N[C@@H](CC(N)=O)C(=O)N[C@H](C(=O)N[C@@H](Cc1ccc(O)cc1)C(N)=O)[C@@H](C)O)C(C)C)[C@@H](C)O [Example 31, N-alpha-[(S)-4-Carboxy-4-(17-carboxyheptadecanoylamino)butyryl]-His-[His1,His17]-pramlintide] ({C18 diacid-γGlu}-HHCNTATCATQRLANFLHHSSNNFGPILPPTNVGSNTY-NH2; disulfide 3-8)
food intake over a period of 48 hours (food intake): effectively reducing food intake | half-life [1]: 41 h | EC50 [2]: 20 pM
